Experimental findings from article PMC9886266, “New [1,2,4]triazolo[4,3-c]quinazolines as intercalative Topo II inhibitors: Design, synthesis, biological evaluation, and in silico studies” (PLOS ONE, 2023) are described below.

Structures are written as SMILES. Read-outs that look alike come from different tables or passages of the source.

One assay deals with HepG2 cell line. In words: MTT anti-proliferative assay, HepG2. As to conditions: Homo sapiens, 48 h, three independent experiments, read-out: In vitro cytotoxicity IC50, HepG2. The class given is cell-based. As for the experimental part: (§1) In vitro antiproliferative activities of the target molecules were assessed against two human cancer cell lines namely, hepatocellular carcinoma (HepG2) and colorectal carcinoma (HCT-116) using MTT assay.
(§2) The anti-proliferative activity of the synthesized compounds was assessed using MTT assay protocol. A panel of human cancer cell lines namely, colorectal carcinoma (HCT-116) and hepatocellular carcinoma (HepG2) was used in this test. Doxorubicin was used as a positive control. The cell lines were got from ATCC (American Type Culture Collection) via the Holding company for biological products and vaccines (VACSERA, Cairo, Egypt). The anti-proliferative activities of the tested compounds were determined quantitatively as follows:
(§3) At first, the cells were cultured into a medium of RPMI-1640 with 10% fetal bovine serum. Then, two different antibiotics were added at 37°C in a 5% CO2 incubator: penicillin (100 units/mL) and streptomycin (100 μg/mL). Next, we seeded the cells in a 96-well plate by a density of 1.0 x 10^4 cells / well at 37°C for 48 h under 5% CO2. The synthesized compounds with different concentrations were applied into the cell lines and incubated for 48 h. After 48 h, 20 μl of MTT solution (5mg/mL) was added and incubated for 4 h. Then, DMSO (100 μl) was added into each well to dissolve the formed purple formazan. After that, a colorimetric assay was measured and recorded at absorbance of 570 nm using a plate reader (EXL 800, USA). The relative cell viability in percentage was calculated as (A570 of treated samples/A570 of untreated sample) X 100.
(§4) S2: Biological evaluation
(§5) S2.1. In vitro cytotoxic activity
(§6) The anti-proliferative activity of the synthesized compounds was assessed using MTT assay protocol. A panel of human cancer cell lines namely, colorectal carcinoma (HCT-116) and hepatocellular carcinoma (HepG2) was used in this test. As we targeted the DNA and Topo […]
(§7) cell lines were got from ATCC (American Type Culture Collection) via the Holding company for biological products and vaccines (VACSERA, Cairo, Egypt). The anti -proliferative activities of the tested compounds were determined quantitatively as follows:
(§8) At first, the cells were cultured into a medium of RPMI-1640 with 10% fetal bovine serum.
(§9) Then, two different antibiotics were added at 37 ᵒC in a 5% CO2 incubator: penicillin (100 units/mL) and streptomycin (100 µg/mL). Next, we seeded the cells in a 96 -well plate by a density of 1.0 x 10^4 cells / well at 37 ᵒC for 48 h under 5% CO2. The synthesized compounds with different concentrations were applied into the cell lines and incubated for 48 h. After 48 h, 20 µl of MTT solution (5mg/mL) was added and incubated for 4 h. Then, DMSO (100 µl) was added into each well to dissolve the formed purple formazan. After that, a colorimetric assay was measured and recorded at absorbance of 570 nm using a plate reader (EXL 800, USA). The relative cell viability in percentage was calculated as (A570 of treated samples/A570 of untreated sample) X 100. […]
A general note: Formazan colour is commonly taken as a measure of viable cells.

In a further assay the test system is HCT-116 cell line. The assay is described as follows: MTT anti-proliferative assay, HCT-116. In kind it is cell-based. As to conditions: Homo sapiens, 48 h, three independent experiments, read-out: In vitro cytotoxicity IC50, HCT-116. As for the experimental part: as §1, §2, §3, §4, §5, §6, §7, §8, §9
The subject of assay [1] is Activated Calf Thymus DNA. In words: DNA/methyl green assay (DNA intercalation). The class given is binding. As to conditions: for LogIC50 (best-fit value, DNA/Topo-II Inhibition (%) curve): log of drug concentration in uM. As to the method:
The most promising members (13a, 14a, 16, 17, 18, 19, and 20) were further investigated for their binding affinity against DNA. […] The results of DNA-binding affinities were reported in Table 1 as IC50 values calculated from the concentration-inhibition response curve.
Activated Calf Thymus DNA (Merk, Germany) was treated with methyl green (Merk, Germany), then the synthesized compounds were applied to displace the methyl green dye, producing equivalent color.
After that, the DNA was run on 1% agarose gel in BioRad gel electrophoresis system for 1–2 h followed by staining with GelRedTM stain for 2 h and destained for 15 min with TAE buffer. The gel was imaged via BioRad’s Gel DocTMEZ system. Both supercoiled and linear strands DNA were incorporated in the gel as markers for DNA-Topo II intercalators. The results of IC50 values were calculated using the GraphPad Prism version 7. Each reaction was performed in duplicate, and at least three independent determinations of each IC50 were made.
S2.3. DNA/Methyl Green Assay […]
methyl green dye method described by Burres et al. Activated Calf Thymus DNA (Merk, Germany) was treated with methyl green (Merk, Germany), then the synthesized compounds were applied to displace the methyl green dye, producing equivalent color. […]

Assay [2] addresses T1, Topoisomerase II (Topo II) (Homo sapiens, UniProt P11388).
T1 construct: purchased TopoGEN, Inc., Columbus
In words: In vitro Topo II inhibitory assay (TopoGEN Topo II drug screening kit). The class given is biochemical. As to the method:
The reported method described by Patra et al was applied using Topo II drug screening kit (TopoGEN, Inc., Columbus).
A typical enzyme reaction was structured to determine Topo II activity. The reaction mixture included Topo II (2 μl), substrate super coiled pHot1 DNA (0.25 μg), 50 μg/ml test compound (2 μl), and assay buffer (4 μl). To start the reaction, the mixture was allowed to incubate in 37°C for 30 min. To terminate the reaction, a mixture of 10% sodium dodecylsulphate (2 μl) and proteinase K (50 μg/mL) was added at 37°C for 15 min. then incubated for 15 min at 37°C.
(§10) After that, the DNA was run on 1% agarose gel in BioRad gel electrophoresis system for 1–2 h followed by staining with GelRedTM stain for 2 h and destained for 15 min with TAE buffer. The gel was imaged via BioRad’s Gel DocTMEZ system. Both supercoiled and linear strands DNA were incorporated in the gel as markers for DNA-Topo II intercalators. The results of IC50 values were calculated using the GraphPad Prism version 7. Each reaction was performed in duplicate, and at least three independent determinations of each IC50 were made. […]
S2.2. Measurement of topoisomerase II Activity […]
analyzed for their Topo II inhibitory activities. The reported method described by Patra et al was applied using Topo II drug screening kit (TopoGEN, Inc., Columbus).
A typical enzyme reaction was structured to determine Topo II activity. The reaction mixture included Topo II (2 µl), substrate super coiled pHot1 DNA (0.25 µg), 50 µg/ml test compound (2 µl), and assay buffer (4 µl). To start the reaction, the mixture was allowed to incubate in 37 °C for 30 min. To terminate the reaction, a mixture of 10% sodium dodecylsulphate (2 µl) and proteinase K (50 µg/mL) was added at 37 °C for 15 min. then incubated for 15 min at 37 °C.
as §10

[3] abbreviates: 50% inhibition concentration of DNA/methyl green assay, read-out: DNA/Methyl green (IC50).

T1 sequence (P11388 whole entry): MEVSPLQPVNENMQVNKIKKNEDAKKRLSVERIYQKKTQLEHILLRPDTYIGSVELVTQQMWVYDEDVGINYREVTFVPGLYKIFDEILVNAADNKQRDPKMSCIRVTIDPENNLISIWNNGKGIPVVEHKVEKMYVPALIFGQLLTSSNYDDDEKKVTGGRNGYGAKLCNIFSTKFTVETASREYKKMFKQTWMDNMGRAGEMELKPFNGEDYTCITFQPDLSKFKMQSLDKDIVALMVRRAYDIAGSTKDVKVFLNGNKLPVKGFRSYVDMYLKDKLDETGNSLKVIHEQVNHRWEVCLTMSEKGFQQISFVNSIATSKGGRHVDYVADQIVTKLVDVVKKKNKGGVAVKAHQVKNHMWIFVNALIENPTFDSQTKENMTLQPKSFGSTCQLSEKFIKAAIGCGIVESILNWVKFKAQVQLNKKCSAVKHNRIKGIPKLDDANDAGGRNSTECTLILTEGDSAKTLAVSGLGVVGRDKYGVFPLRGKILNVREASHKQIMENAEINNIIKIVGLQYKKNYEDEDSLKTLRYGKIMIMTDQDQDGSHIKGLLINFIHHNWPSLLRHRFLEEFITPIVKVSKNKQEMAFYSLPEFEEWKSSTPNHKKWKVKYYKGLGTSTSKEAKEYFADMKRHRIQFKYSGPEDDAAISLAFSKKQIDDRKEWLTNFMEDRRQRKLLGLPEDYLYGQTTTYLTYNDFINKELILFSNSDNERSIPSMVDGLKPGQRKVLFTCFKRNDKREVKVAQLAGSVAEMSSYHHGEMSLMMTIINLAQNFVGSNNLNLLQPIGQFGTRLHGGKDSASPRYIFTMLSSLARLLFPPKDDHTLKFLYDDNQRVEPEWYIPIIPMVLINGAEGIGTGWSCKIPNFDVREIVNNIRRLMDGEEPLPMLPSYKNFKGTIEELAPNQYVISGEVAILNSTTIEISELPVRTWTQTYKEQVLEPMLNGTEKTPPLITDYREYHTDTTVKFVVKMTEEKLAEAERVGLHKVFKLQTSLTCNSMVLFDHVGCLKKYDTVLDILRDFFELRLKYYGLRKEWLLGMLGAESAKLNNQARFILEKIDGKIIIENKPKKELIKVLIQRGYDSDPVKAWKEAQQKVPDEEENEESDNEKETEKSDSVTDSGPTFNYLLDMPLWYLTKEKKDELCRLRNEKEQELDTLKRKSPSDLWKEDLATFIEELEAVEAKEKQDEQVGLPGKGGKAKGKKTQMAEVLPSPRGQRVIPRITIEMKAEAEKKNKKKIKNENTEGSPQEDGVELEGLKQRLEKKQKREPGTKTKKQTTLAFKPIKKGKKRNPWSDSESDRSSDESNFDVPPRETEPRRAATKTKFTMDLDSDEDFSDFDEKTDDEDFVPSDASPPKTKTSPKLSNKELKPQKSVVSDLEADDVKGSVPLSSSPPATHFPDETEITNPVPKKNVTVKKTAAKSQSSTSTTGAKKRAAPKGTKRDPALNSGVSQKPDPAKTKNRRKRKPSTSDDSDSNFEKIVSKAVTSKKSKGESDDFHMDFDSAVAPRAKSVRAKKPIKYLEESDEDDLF

As for `CCCNc1nc2ccccc2c2nnc(-c3ccc(C)cc3)n12` [Compound 11a, N-Propyl-3-(p-tolyl)-[1,2,4]triazolo[4,3-c]quinazolin-5-amine], the IC50 in the assay on HepG2 cell line is 15.5 ± 1 µM; with HCT-116 cell line, 8.42 ± 0.3 µM.

As for `CCCNc1nc2ccccc2c2nnc(-c3ccc(Cl)cc3)n12` [Compound 11b, 3-(4-Chlorophenyl)-N-propyl-[1,2,4]triazolo[4,3-c]quinazolin-5-amine], the IC50 in the assay on HepG2 cell line was determined as 29.9 ± 1.3 µM; with HCT-116 cell line it was 25 ± 0.9 µM.

For `Cc1ccc(-c2nnc3c4ccccc4nc(NCCO)n23)cc1` [Compound 12a, 2-((3-(p-Tolyl)-[1,2,4]triazolo[4,3-c]quinazolin-5-yl)amino)ethan-1-ol], the IC50 with HepG2 cell line is 18.8 ± 1.2 µM; with HCT-116 cell line, 11.9 ± 0.3 µM.

Turning to `OCCNc1nc2ccccc2c2nnc(-c3ccc(Cl)cc3)n12` [Compound 12b, 2-((3-(4-Chlorophenyl)-[1,2,4]triazolo[4,3-c]quinazolin-5-yl)amino)ethan-1-ol], the IC50 in the assay with HepG2 cell line is 17.8 ± 0.9 µM; in the assay with HCT-116 cell line it was 7.03 ± 0.2 µM.

For the molecule `Cc1ccc(-c2nnc3c4ccccc4nc(N(C)C)n23)cc1` [Compound 13a, N,N-Dimethyl-3-(p-tolyl)-[1,2,4]triazolo[4,3-c]quinazolin-5-amine], the IC50 in the assay on HepG2 cell line stood at 10.7 ± 0.6 µM; in assay [1] (setting [3]), 52.9 ± 1.6 µM; in the assay with HCT-116 cell line, 11.6 ± 0.5 µM; in assay [2], 36.1 ± 1.9 µM. Moreover, in assay [1] (supplement curve fit), the “LogIC50 (best-fit value, DNA/Topo-II Inhibition (%) curve)” value is 1.723. In addition, in assay [1] (supplement curve fit), the “HillSlope (best-fit value, DNA/Topo-II Inhibition (%) curve)” value came out at 0.4587.

As for `CN(C)c1nc2ccccc2c2nnc(-c3ccc(Cl)cc3)n12` [Compound 13b, 3-(4-Chlorophenyl)-N,N-dimethyl-[1,2,4]triazolo[4,3-c]quinazolin-5-amine], the values for the IC50 with HepG2 cell line and with HCT-116 cell line were 33.1 ± 1.7 µM and 16.9 ± 0.9 µM, respectively.

In the case of `Cc1ccc(-c2nnc3c4ccccc4nc(NC4CCCCC4)n23)cc1` [Compound 14a, N-Cyclohexyl-3-(p-tolyl)-[1,2,4]triazolo[4,3-c]quinazolin-5-amine], the IC50 in the assay with HepG2 cell line came out at 13 ± 0.5 µM; in assay [1] (setting [3]), 22.5 ± 0.9 µM; with HCT-116 cell line it was 7.66 ± 0.2 µM; in assay [2], 30.4 ± 1.8 µM. Besides, the “LogIC50 (best-fit value, DNA/Topo-II Inhibition (%) curve)” value in assay [1] (supplement curve fit) worked out at 1.353. Moreover, the “HillSlope (best-fit value, DNA/Topo-II Inhibition (%) curve)” value in assay [1] (supplement curve fit) was 0.4583.

In the case of `Clc1ccc(-c2nnc3c4ccccc4nc(NC4CCCCC4)n23)cc1` [Compound 14b, 3-(4-Chlorophenyl)-N-cyclohexyl-[1,2,4]triazolo[4,3-c]quinazolin-5-amine], the IC50 in the assay on HepG2 cell line was determined as 29.5 ± 1.2 µM; in the assay with HCT-116 cell line, 17.4 ± 0.4 µM.

As to `Cc1ccc(-c2nnc3c4ccccc4nc(N4CCOCC4)n23)cc1` [Compound 15a, 4-(3-(p-Tolyl)-[1,2,4]triazolo[4,3-c]quinazolin-5-yl)morpholine], the figures for the IC50 with HepG2 cell line and in the assay with HCT-116 cell line were 20.4 ± 0.9 µM and 20 ± 0.4 µM, respectively.

Regarding `Clc1ccc(-c2nnc3c4ccccc4nc(N4CCOCC4)n23)cc1` [Compound 15b, 4-(3-(4-Chlorophenyl)-[1,2,4]triazolo[4,3-c]quinazolin-5-yl)morpholine], the IC50 is 23.4 ± 0.9 µM with HepG2 cell line and 21 ± 0.3 µM in the assay on HCT-116 cell line.

For `OCCNc1nc2ccccc2c2nnc(C(F)(F)F)n12` [Compound 17, 2-((3-(Trifluoromethyl)-[1,2,4]triazolo[4,3-c]quinazolin-5-yl)amino)ethan-1-ol], the IC50 with HepG2 cell line turned out to be 5.65 ± 0.1 µM; in assay [1] (setting [3]), 11.1 ± 0.7 µM; with HCT-116 cell line it was 2.78 ± 0.1 µM; in assay [2], 17.7 ± 0.8 µM. For the same molecule, in assay [1] (supplement curve fit), the “LogIC50 (best-fit value, DNA/Topo-II Inhibition (%) curve)” value is 1.045. Besides, the “HillSlope (best-fit value, DNA/Topo-II Inhibition (%) curve)” value in assay [1] (supplement curve fit) came out at 0.4423.

Take `CN(C)c1nc2ccccc2c2nnc(C(F)(F)F)n12` [Compound 18, N,N-Dimethyl-3-(trifluoromethyl)-[1,2,4]triazolo[4,3-c]quinazolin-5-amine]: the IC50 in the assay on HepG2 cell line was 6.82 ± 0.2 µM; in assay [1] (setting [3]), 12.5 ± 0.6 µM; with HCT-116 cell line, 4.17 ± 0.1 µM; in assay [2], 18.3 ± 0.8 µM. Also, the “LogIC50 (best-fit value, DNA/Topo-II Inhibition (%) curve)” value in assay [1] (supplement curve fit) is 1.098. For the same molecule, in assay [1] (supplement curve fit), the “HillSlope (best-fit value, DNA/Topo-II Inhibition (%) curve)” value is on record as 0.3961.

With `FC(F)(F)c1nnc2c3ccccc3nc(NC3CCCCC3)n12` [Compound 19, N-Cyclohexyl-3-(trifluoromethyl)-[1,2,4]triazolo[4,3-c]quinazolin-5-amine], the IC50 stood at 8.91 ± 0.2 µM in the assay on HepG2 cell line, 23.6 ± 1.3 µM in assay [1] (setting [3]), 9.43 ± 0.3 µM in the assay with HCT-116 cell line and 18.7 ± 0.9 µM in assay [2]. Besides, the “LogIC50 (best-fit value, DNA/Topo-II Inhibition (%) curve)” value in assay [1] (supplement curve fit) stood at 1.373. Also, the “HillSlope (best-fit value, DNA/Topo-II Inhibition (%) curve)” value in assay [1] (supplement curve fit) was determined as 0.3612.

Consider `FC(F)(F)c1nnc2c3ccccc3nc(N3CCOCC3)n12` [Compound 20, 4-(3-(Trifluoromethyl)-[1,2,4]triazolo[4,3-c]quinazolin-5-yl)morpholine], for which the IC50 in the assay with HepG2 cell line is 8.34 ± 0.3 µM; in assay [1] (setting [3]), 34.5 ± 1.2 µM; with HCT-116 cell line, 4.61 ± 0.2 µM; in assay [2], 20.6 ± 0.9 µM. In assay [1] (supplement curve fit), the “LogIC50 (best-fit value, DNA/Topo-II Inhibition (%) curve)” value is recorded as 1.538. For the same molecule, the “HillSlope (best-fit value, DNA/Topo-II Inhibition (%) curve)” value in assay [1] (supplement curve fit) was found to be 0.3425.

Take `COc1cccc2c1C(=O)c1c(O)c3c(c(O)c1C2=O)C[C@@](O)(C(=O)CO)C[C@@H]3O[C@H]1C[C@H](N)[C@H](O)[C@H](C)O1` [Doxorubicin, reference compound]: the IC50 was determined as 3.8 ± 0.1 µM with HepG2 cell line; 5.64 ± 0.1 µM in assay [1] (setting [3]); 5.64 µM in assay [1] (supplement curve fit, read-out: IC50 (best-fit value, DNA/Topo-II Inhibition (%) curve)); 1.87 ± 0.1 µM in the assay with HCT-116 cell line. Besides, in assay [1] (supplement curve fit), the “HillSlope (best-fit value, DNA/Topo-II Inhibition (%) curve)” value turned out to be 0.3659.
